Each structure is given as a SMILES string. Activity calls are given as the source filed them. How the calls were made is not given here.

A short description of the experiment: CD40 pathway inhibition in B cells – B cell lineage, dose response (AID 1259332).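 Further: cells stimulated with CD40 ligand tCD40L; 0% = neutral control wells and -100% = positive control wells.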 The settings on record: B cell line, CD40 signaling inhibition reporter.

Consider `C[C@@H]1CCCCO[C@@H](CN(C)C(=O)C2CCCCC2)[C@@H](C)CN([C@H](C)CO)C(=O)c2cc(NS(=O)(=O)c3ccccc3)ccc2O1`, for which the activity change, negative = inhibition (at 3.5 µM (top of the series)) was -0.82% (inactive).

Regarding `CCCNC(=O)N1[C@H](C#N)[C@@H](c2ccc(-c3cccc(OC)c3)cc2)[C@H]1CO`, the activity change, negative = inhibition (at 3.5 µM (top of the series)) is 1.94% (inactive).

For `CC1=CC(=O)c2ccccc2C1=O`, the activity change, negative = inhibition (at 3.5 µM (top of the series)) was 11.2% (inactive).

With `N#Cc1cccc(-c2ccc([C@@H]3[C@H](CO)N4CCCCN(C(=O)Nc5cccc(F)c5)C[C@@H]34)cc2)c1`, the activity change, negative = inhibition (at 3.5 µM (top of the series)) was 18.1% (inactive).

In the case of `C[C@@H]1CCCCO[C@@H](CN(C)CC2CCCCC2)[C@@H](C)CN([C@@H](C)CO)C(=O)c2cc(NC(=O)Nc3ccc(C(F)(F)F)cc3)ccc2O1`, the activity change, negative = inhibition (at 3.5 µM (top of the series)) was -6.41% (inactive).

As for `O=C(CCN1CCC(c2ccccc2)C1)c1ccc2c(c1)OCCO2` (stereo not drawn), the activity change, negative = inhibition (at 3.5 µM (top of the series)) was 26.9% (inactive).

With `C=C1C(=O)OC2C=C(CO)CCC=C(CO)CC(OC(=O)C(C)C)C12` (stereo not drawn), where the note is “at 10 µM (top of the series)”, the activity change, negative = inhibition is 14% (inactive).

With `COc1ccc(S(=O)(=O)N(C)C[C@H]2Oc3ccc(NC(=O)Nc4ccc(C(F)(F)F)cc4)cc3C(=O)N([C@@H](C)CO)C[C@@H]2C)cc1`, the activity change, negative = inhibition (at 1.1 µM (top of the series)) is 11.5% (inactive).

In the case of `C/C=C/c1ccc(C2[C@H]3CNC[C@@H]2N3Cc2cccc(OC)c2)cc1` (stereo partly drawn), the activity change, negative = inhibition (at 1.1 µM (top of the series)) was 19.7% (inactive).

In the case of `Nc1cccc2nc3ccccc3cc12`, where the note is “at 10 µM (top of the series)”, the activity change, negative = inhibition was 22.5% (inactive).

`COC(=O)c1ccc2c(=O)[nH]c(COC(=O)c3c(-c4ccccc4)noc3C)nc2c1`: the activity change, negative = inhibition (at 10 µM (top of the series)) is 7.81% (inactive).

In the case of `CCCCC1C(=O)NC(=S)N(C)C1=O` (stereo not drawn), the activity change, negative = inhibition (at 10 µM (top of the series)) is 11.5% (inactive).

Turning to `CC(C)(C)c1cc(/C=C(\C#N)C(N)=S)cc(C(C)(C)C)c1O`, the activity change, negative = inhibition (at 3.5 µM (top of the series)) is 4.91% (inactive).

As for `CC12CN3CC(C)(CN(C1)C3c1ccc3c(c1)OCO3)C2=O` (stereo not drawn), the activity change, negative = inhibition (at 10 µM (top of the series)) is 6.2% (inactive).

Take `CCCCn1c(NC(=O)c2ccc(Br)o2)c(S(=O)(=O)c2ccccc2)c2nc3ccccc3nc21`: the activity change, negative = inhibition (at 10 µM (top of the series)) is 6.39% (inactive).

With `Cc1noc(C)c1S(=O)(=O)Nc1ccc2c(c1)C(=O)N([C@H](C)CO)C[C@H](C)[C@@H](CN(C)C(=O)Nc1cccc3ccccc13)OCCCC[C@H](C)O2`, the activity change, negative = inhibition (at 3.5 µM (top of the series)) is -1% (inactive).

As to `C[C@H]1CN([C@@H](C)CO)C(=O)c2ccccc2-c2ccccc2CO[C@H]1CN(C)Cc1ccc(Oc2ccccc2)cc1`, the activity change, negative = inhibition (at 0.38 µM (top of the series)) is 6.67% (inactive).

As for `CCN(CC(=O)Nc1ccc(NC(C)=O)cc1)C(=O)C1CCCN(C(=O)c2ccc(Cl)cc2)C1` (stereo not drawn), the activity change, negative = inhibition (at 10 µM (top of the series)) is 0.336% (inactive).

As for `CCc1cc2c(COC(=O)c3cc(S(=O)(=O)N4CCOCC4)ccc3F)cc(=O)oc2cc1O`, where the note is “at 10 µM (top of the series)”, the activity change, negative = inhibition is 11.4% (inactive).

As to `NS(=O)(=O)c1cc2c(cc1C(F)(F)F)NC(Cc1ccccc1)NS2(=O)=O` (stereo not drawn), the activity change, negative = inhibition (at 10 µM (top of the series)) is 5.72% (inactive).

On to `O=C1C(Br)=C(c2ccccc2)C(c2ccccc2)=C1c1ccccc1`, for which, under “at 10 µM (top of the series)”, the activity change, negative = inhibition was -7.86% (inactive).

Regarding `O=C1C(=NO)CCc2ccccc21`, the activity change, negative = inhibition (at 1.1 µM (top of the series)) is 21.3% (inactive).

Regarding `O=C(NCc1ccccn1)C1CCCN(S(=O)(=O)c2ccccc2)C1` (stereo not drawn), the activity change, negative = inhibition (at 10 µM (top of the series)) was 8.97% (inactive).

On to `CC(C)Cc1ccc(C(C)/C=C2/CCC(CN3CCCCC3)C2=O)cc1` (stereo not drawn), for which the activity change, negative = inhibition (at 10 µM (top of the series)) was -18.1% (inactive).

For the molecule `Cc1ccc2c(c1)C(O)(CC(=O)/C=C/C=C/c1ccccc1)C(=O)N2` (stereo not drawn), the activity change, negative = inhibition (at 10 µM (top of the series)) was -5.49% (inactive).

On to `COc1ccccc1C(=O)Nc1ccc2c(c1)C(=O)N(C)[C@H]1CC[C@H](CC(=O)Nc3cccc(C(C)C)c3)O[C@@H]1CO2`, for which, for the setting “at 3.5 µM (top of the series)”, the activity change, negative = inhibition was 12.5% (inactive).

Regarding `CC(=O)Nc1nc2nc(-c3ccccc3)cc(-c3ccccc3)n2n1`, the activity change, negative = inhibition (at 10 µM (top of the series)) was 6.86% (inactive).

On to `N#C[C@@H]1[C@@H](c2ccccc2-c2ccccc2)[C@@H](CO)N1C(=O)NC1CCCC1`, for which the activity change, negative = inhibition (at 3.5 µM (top of the series)) was 5.58% (inactive).

On to `O=C(CNCCO)N1N=C(c2cccs2)CC1c1cccs1` (stereo not drawn), for which the activity change, negative = inhibition (at 10 µM (top of the series)) was 12.3% (inactive).

Take `CCCCc1nc2ccccc2[nH]1`: where the note is “at 10 µM (top of the series)”, the activity change, negative = inhibition was 2.81% (inactive).

Turning to `COc1ccc(NC(=O)O/N=C/c2c(C)nn(C(C)(C)C)c2C)cc1`, the activity change, negative = inhibition (at 10 µM (top of the series)) was 13.9% (inactive).

As to `C[C@@H]1CN([C@@H](C)CO)C(=O)Cc2cc(NS(=O)(=O)c3ccccc3)ccc2O[C@H]1CN(C)Cc1ccc(Cl)c(Cl)c1`, the activity change, negative = inhibition (at 3.5 µM (top of the series)) is 0.835% (inactive).

Take `CC(C)(C)[S@](=O)N1Cc2cc(C(=O)NCC(F)(F)F)nc(-c3cccc(-c4cccc(F)c4)c3)c2[C@@H]1CCO`: under “at 1.1 µM (top of the series)”, the activity change, negative = inhibition is 9.18% (inactive).

The values are drawn from PubChem BioAssay AID1259332 (Broad Institute, 2017).
